Results taken from publication PMC10301845, “Characterization of a Novel M4 PAM PET Radioligand [11C]PF06885190 in Nonhuman Primates (NHP)” (Molecules, 2023).

Columns and labels:
M4 [1] = molecular target: T1, M4 (Homo sapiens, UniProt P08173); experiment: human M4 binding affinity (evaluated by Pfizer); conditions: identified and evaluated by Pfizer
T1 sequence (P08173 1-479): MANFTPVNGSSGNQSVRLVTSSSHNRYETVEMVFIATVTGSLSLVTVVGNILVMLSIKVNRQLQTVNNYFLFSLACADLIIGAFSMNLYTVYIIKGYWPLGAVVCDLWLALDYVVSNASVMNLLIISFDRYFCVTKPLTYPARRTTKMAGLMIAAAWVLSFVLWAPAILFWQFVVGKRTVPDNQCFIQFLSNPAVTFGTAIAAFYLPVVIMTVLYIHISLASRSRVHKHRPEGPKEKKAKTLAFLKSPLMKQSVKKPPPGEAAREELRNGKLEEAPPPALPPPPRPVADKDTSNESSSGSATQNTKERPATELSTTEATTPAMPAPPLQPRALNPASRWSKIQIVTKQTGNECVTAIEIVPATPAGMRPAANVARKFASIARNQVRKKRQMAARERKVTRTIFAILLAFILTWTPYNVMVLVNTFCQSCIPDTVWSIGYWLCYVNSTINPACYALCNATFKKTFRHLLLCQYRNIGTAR

M4 [2] = molecular target: T2, M4 (Rattus norvegicus, UniProt P08485); experiment: rat M4 binding affinity (evaluated by Pfizer); conditions: identified and evaluated by Pfizer
T2 sequence (P08485 1-478): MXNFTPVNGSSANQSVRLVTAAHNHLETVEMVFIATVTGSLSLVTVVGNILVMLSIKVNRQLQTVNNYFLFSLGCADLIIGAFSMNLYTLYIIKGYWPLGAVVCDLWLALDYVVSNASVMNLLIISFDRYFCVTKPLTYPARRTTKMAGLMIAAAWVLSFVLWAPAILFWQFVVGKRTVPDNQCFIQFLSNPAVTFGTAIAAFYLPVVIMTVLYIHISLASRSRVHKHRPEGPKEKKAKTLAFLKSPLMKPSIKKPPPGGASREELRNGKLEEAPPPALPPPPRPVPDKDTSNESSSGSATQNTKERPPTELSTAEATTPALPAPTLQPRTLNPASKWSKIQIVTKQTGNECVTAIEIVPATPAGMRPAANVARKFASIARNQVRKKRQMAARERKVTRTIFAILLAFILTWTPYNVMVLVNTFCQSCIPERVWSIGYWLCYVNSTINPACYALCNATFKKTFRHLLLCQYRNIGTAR

- Ki (M4 [1]): 0.16 nM
- Ki (M4 [2]): 7.15 nM
SMILES: CNc1nc(C)c(C)c2c1CN(C(=O)C[C@H]1C[C@@H]1c1ccc(F)nc1)C2 [PF06885190, 1-(6,7-dimethyl-4-(methylamino)-1,3-dihydro-2H-pyrrolo [3,4-c]pyridin-2-yl)-2-((1R,2S)-2-(6-fluoropyridin-3-yl)cyclopropyl)ethan-1-one]
